These are literature values, as cited in US20080077374A1, “Method for predicting biological, biochemical, biophysical or pharmacological characteristics of a substance” (priority 2006, published 2008).

Where two headings read alike, the source gives them in different places.

One data set concerns male Sprague Dawley rats. As to conditions: for Diagnosis cc: clinical chemistry; for Diagnosis histo: histopathology; for Main target: main toxicity target; for observed severity of histological lesions: liver, labelled by COMET1 study number.
The subject of a further data set is HanWistar rats. As to conditions: HanWistar rats (study R12).
Where [1] appears, read: SpragueDawley rats, refinement of the principal toxicity.

Regarding `S=C=Nc1cccc2ccccc12` [ANIT], in the data set with male Sprague Dawley rats (SpragueDawley rats), the Diagnosis cc result is reported as “+”, the Diagnosis histo is 2bil and the Main target entry is on record as “Hepatotoxic”. In the data set with male Sprague Dawley rats, the “observed severity of histological lesions” value is given as “no or minimal liver lesions”.

Turning to `CC(=O)Nc1nnc(S(N)(=O)=O)s1` [Acetazolamide], the 2nd toxicity result in the data set with male Sprague Dawley rats (rat, in vivo) is listed as “Papilla”.

As to `Cl.N` [Ammonium Chloride], in the data set on male Sprague Dawley rats (SpragueDawley rats), the Subclass/Indication entry is given as “Non-Toxic”, the Diagnosis cc entry is recorded as “+”, the Diagnosis histo was 0 and the Main target result is on record as “Kidney”. Also, in the data set with male Sprague Dawley rats (SpragueDawley rats, highest dose level, pathology at 48 h post dose, assumed organ toxicity class), the Tox class result was “ntx”. For the same compound, in the data set on male Sprague Dawley rats (setting [1]), the 2nd toxicity entry was “Metabolic”.

As for `CCOC(=O)C(C)(C)Oc1ccc(Cl)cc1` [Clofibrate], in the data set on male Sprague Dawley rats (SpragueDawley rats), the Subclass/Indication entry is listed as “Toxicant”, the Diagnosis cc result is listed as “+”, the Diagnosis histo is on record as 9sub and the Main target entry is reported as “Hepatotoxic”. Further, the “observed severity of histological lesions” value with male Sprague Dawley rats was “no or minimal liver lesions”. Further, the 2nd toxicity result with male Sprague Dawley rats (rat, in vivo) was “Peroxisome”.

`CN(C)N=O` [Di-methylnitrosamin]: in the data set on male Sprague Dawley rats (SpragueDawley rats), the Subclass/Indication entry is listed as “Toxicant”, the Diagnosis cc result is recorded as “+”, the Diagnosis histo is listed as 2 and the Main target result was “Hepatotoxic”. The 2nd toxicity result with male Sprague Dawley rats (setting [1]) was “Direct reaction”. The “observed severity of histological lesions” value in the data set on male Sprague Dawley rats is on record as “marked liver lesions”.

For the compound `NN` [Hydrazine], the Subclass/Indication entry in the data set on male Sprague Dawley rats (SpragueDawley rats) and with HanWistar rats was “Toxicant” in each case. Besides, the Diagnosis cc result in the data set on male Sprague Dawley rats (SpragueDawley rats) and with HanWistar rats (clinical chemistry) was “+” throughout. Further, the Diagnosis histo in the data set on male Sprague Dawley rats (SpragueDawley rats) and in the data set with HanWistar rats (histopathology) was 7 each time. In addition, the Main target entry in the data set with male Sprague Dawley rats (SpragueDawley rats) and in the data set with HanWistar rats (main toxicity target) was “Hepatotoxic” in each case. Also, the 2nd toxicity entry in the data set with male Sprague Dawley rats (setting [1]) and in the data set with HanWistar rats was “Steatosis” each time.

As for `O=C(O)/C=C\C(=O)O` [Maleic acid], the 2nd toxicity result in the data set on male Sprague Dawley rats (rat, in vivo) is “Proximal”.

For the compound `[Cl][Hg][Cl]` [Mercury Chloride], in the data set on male Sprague Dawley rats (SpragueDawley rats), the Subclass/Indication entry is on record as “Toxicant”, the Diagnosis cc entry is “+”, the Diagnosis histo was 3 and the Main target entry was “Nephrotoxic”. Also, the 2nd toxicity result in the data set on male Sprague Dawley rats (setting [1]) is “Proximal”.

`CN(Cc1cnc2nc(N)nc(N)c2n1)c1ccc(C(=O)N[C@@H](CCC(=O)O)C(=O)O)cc1` [Methotrexate]: in the data set with male Sprague Dawley rats (SpragueDawley rats), the Subclass/Indication result was “Toxicant”, the Diagnosis cc result is “−”, the Diagnosis histo was 1hea and the Main target result is “Hemotoxic”. Besides, the 2nd toxicity entry with male Sprague Dawley rats (rat, in vivo) is reported as “Liver & kidney”.

In the case of `CO[C@@]12[C@H](COC(N)=O)C3=C(C(=O)C(C)=C(N)C3=O)N1C[C@@H]1N[C@@H]12` [Mitomycin], the Diagnosis histo in the data set on male Sprague Dawley rats (SpragueDawley rats) was 1hae. For the same compound, in the data set with male Sprague Dawley rats (rat, in vivo), the 2nd toxicity result is listed as “Tubules, blood”.

As to `CNC=O` [N-methylformamid], in the data set with male Sprague Dawley rats (SpragueDawley rats), the Subclass/Indication result is recorded as “Toxicant”, the Diagnosis cc entry is on record as “+”, the Diagnosis histo is 2 and the Main target entry was “Hepatotoxic”. Moreover, the 2nd toxicity result in the data set with male Sprague Dawley rats (setting [1]) is listed as “Direct reaction”.

As to `CN[C@H](CC(C)C)C(=O)N[C@H]1C(=O)N[C@@H](CC(N)=O)C(=O)N[C@H]2C(=O)N[C@H]3C(=O)N[C@H](C(=O)N[C@H](C(=O)O)c4cc(O)cc(O)c4-c4cc3ccc4O)[C@H](O)c3ccc(c(Cl)c3)Oc3cc2cc(c3O[C@@H]2O[C@H](CO)[C@@H](O)[C@H](O)[C@H]2O[C@H]2C[C@](C)(N)[C@H](O)[C@H](C)O2)Oc2ccc(cc2Cl)[C@H]1O` [Vancomycin], in the data set with male Sprague Dawley rats (SpragueDawley rats), the Subclass/Indication result is “Toxicant”, the Diagnosis cc entry is recorded as “+”, the Diagnosis histo is listed as 3reg and the Main target entry is “Nephrotoxic”. Besides, the 2nd toxicity entry in the data set with male Sprague Dawley rats (setting [1]) is “Proximal”.

With Gentamicin, in the data set with male Sprague Dawley rats (SpragueDawley rats), the Subclass/Indication entry is recorded as “Toxin”, the Diagnosis cc entry is reported as “+”, the Diagnosis histo is 3sub and the Main target entry is reported as “Nephrotoxic”. The 2nd toxicity result in the data set on male Sprague Dawley rats (setting [1]) was “Proximal”.
